Measurements as given in EP4759815A1, “FUSED TRICYCLIC COMPOUND, PHARMACEUTICAL COMPOSITION THEREOF, AND USE THEREOF” (Haihe Biopharma Co., Ltd., priority 2023, dated 2025).
Read-outs that look alike come from different tables or passages of the source.

How the values were obtained:
[1] = test system: MDA-MB-436 cells; test: MDA-MB-436 cell proliferation inhibition test (CellTiter-Glo, 7 days); format: cell-based; conditions: Homo sapiens, MDA-MB-436, 168 h, 7 days incubation
[2] = molecular target: Recombinant human PARP1 protein (Homo sapiens, UniProt P09874); test: PARP1 inhibitory activity (histone substrate, chemiluminescent ELISA); format: biochemical; conditions: for PARP1/2 Fold selectivity: ratio of PARP2 IC50 to PARP1 IC50
[3] = molecular target: T1, PDE3A (Homo sapiens, UniProt Q14432); test: PDE3A enzyme activity test (IMAP FP); format: biochemical; conditions: PDE3A protein 0.2 nM, FAM-cAMP 200 nM, 60 minutes at rt; off-target safety
T1 construct: purchased ICE G13020203013

[4] = Preliminary pharmacokinetic tests in mice; format: in vivo; conditions: male, ICR; for AUC(0-t) / clearance / half-life: mouse plasma; for bioavailability: plasma, oral, mouse, p.o.(5mg/kg) versus i.v.(1mg/kg)
[5] = Test of blood-brain barrier properties in rats; format: in vivo; conditions: male, Wistar Han, brain/plasma; rat, intravenous 1 mg/kg, after 4 h; read-out: Ratio % (brain/blood)
[6] = molecular target: T2, recombinant human PARP2 protein (Homo sapiens, UniProt Q9UGN5); test: PARP2 inhibitory activity (histone substrate, chemiluminescent ELISA); format: biochemical
T2 construct: purchased BPS 80502

[7] = histone substrate, 500 µM NAD+ added to the substrate solution, read-out: PARP1 IC50
[8] = histone substrate, read-out: PARP2 IC50

T2 sequence (Q9UGN5 whole entry): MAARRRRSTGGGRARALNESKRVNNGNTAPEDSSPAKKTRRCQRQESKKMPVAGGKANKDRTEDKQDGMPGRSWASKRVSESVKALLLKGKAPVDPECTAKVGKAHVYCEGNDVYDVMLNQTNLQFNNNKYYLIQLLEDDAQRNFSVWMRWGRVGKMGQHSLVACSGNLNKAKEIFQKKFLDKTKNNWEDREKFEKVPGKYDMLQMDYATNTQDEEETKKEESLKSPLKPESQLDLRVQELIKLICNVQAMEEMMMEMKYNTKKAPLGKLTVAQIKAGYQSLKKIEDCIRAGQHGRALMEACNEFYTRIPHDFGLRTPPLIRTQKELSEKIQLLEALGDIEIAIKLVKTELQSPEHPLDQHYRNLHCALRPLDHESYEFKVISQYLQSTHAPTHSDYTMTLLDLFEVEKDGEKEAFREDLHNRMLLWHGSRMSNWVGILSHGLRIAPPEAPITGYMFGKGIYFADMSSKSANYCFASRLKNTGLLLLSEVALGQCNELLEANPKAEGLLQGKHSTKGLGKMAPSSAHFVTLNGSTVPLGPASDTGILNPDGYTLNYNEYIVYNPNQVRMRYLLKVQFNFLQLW
Chain of Recombinant human PARP1 protein (P09874 whole entry): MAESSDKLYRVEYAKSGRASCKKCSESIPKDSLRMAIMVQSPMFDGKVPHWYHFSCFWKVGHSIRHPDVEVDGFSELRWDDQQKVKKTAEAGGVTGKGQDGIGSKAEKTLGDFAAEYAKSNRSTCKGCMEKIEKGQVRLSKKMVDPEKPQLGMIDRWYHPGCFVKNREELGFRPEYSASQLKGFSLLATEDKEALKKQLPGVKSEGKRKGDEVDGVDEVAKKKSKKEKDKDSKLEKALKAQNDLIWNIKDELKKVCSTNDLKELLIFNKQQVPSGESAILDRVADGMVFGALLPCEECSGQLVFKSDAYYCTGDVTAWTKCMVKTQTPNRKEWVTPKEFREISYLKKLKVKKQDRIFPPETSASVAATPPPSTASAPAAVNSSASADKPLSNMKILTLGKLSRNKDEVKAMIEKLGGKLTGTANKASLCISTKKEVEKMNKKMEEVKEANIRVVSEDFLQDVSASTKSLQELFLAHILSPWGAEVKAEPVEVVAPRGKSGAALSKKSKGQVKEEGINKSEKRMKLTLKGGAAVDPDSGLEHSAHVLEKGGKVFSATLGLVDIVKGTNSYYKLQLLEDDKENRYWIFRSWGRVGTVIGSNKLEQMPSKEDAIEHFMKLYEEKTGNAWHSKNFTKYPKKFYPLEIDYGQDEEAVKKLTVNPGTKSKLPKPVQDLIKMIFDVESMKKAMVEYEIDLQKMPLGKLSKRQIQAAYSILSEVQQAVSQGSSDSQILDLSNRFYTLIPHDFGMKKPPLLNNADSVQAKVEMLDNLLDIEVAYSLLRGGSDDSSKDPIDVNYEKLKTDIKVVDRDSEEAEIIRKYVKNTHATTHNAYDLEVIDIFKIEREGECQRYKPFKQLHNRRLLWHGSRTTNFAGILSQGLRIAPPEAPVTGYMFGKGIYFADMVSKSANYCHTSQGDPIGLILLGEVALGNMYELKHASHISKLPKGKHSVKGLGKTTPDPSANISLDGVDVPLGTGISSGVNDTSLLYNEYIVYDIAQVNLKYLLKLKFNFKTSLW
T1 sequence (Q14432 whole entry, species assumed): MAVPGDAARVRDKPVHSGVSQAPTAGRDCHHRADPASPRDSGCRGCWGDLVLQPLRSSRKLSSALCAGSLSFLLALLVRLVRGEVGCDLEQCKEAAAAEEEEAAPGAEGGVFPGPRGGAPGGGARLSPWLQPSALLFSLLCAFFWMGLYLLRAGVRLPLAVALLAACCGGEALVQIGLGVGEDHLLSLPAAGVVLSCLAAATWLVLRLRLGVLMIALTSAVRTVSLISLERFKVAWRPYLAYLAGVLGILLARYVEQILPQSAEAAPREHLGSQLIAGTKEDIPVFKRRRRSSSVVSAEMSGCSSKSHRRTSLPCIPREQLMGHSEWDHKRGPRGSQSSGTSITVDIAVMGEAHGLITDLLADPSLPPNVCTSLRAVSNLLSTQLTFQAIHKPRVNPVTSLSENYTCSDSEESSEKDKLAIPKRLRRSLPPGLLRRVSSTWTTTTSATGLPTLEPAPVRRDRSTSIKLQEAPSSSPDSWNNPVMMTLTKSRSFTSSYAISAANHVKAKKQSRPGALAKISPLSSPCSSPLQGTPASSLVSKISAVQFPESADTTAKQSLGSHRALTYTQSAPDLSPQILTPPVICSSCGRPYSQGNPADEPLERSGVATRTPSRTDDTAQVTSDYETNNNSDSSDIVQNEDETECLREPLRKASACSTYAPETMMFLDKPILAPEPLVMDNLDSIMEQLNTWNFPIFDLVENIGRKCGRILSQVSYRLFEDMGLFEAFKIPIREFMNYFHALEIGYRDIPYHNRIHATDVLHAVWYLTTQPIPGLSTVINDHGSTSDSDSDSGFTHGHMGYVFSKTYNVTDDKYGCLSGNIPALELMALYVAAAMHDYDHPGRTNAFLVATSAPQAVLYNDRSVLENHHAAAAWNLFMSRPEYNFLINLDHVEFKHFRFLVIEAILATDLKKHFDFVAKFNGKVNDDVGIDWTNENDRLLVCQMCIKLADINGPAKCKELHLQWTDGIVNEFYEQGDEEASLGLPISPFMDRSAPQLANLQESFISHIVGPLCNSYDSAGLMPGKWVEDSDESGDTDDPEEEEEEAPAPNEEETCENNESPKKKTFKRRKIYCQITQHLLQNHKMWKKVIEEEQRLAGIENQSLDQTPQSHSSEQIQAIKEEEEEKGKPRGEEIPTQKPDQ

| SMILES | IC50 [1] | IC50 [2, 7] | IC50 [6, 8] | PARP1/2 Fold selectivity [2] | other results |
| --- | --- | --- | --- | --- | --- |
| CC[C@H]1C(=O)Nc2cc(CN3CCN(c4ccc(C(=O)NC)nc4F)CC3)cc3cnn1c23 [Compound 5-1] | 27.4 nM | 1.35 nM | – | – | – |
| CC[C@@H]1C(=O)Nc2cc(CN3CCN(c4ccc(C(=O)NC)nc4F)CC3)cc3cnn1c23 [Compound 5-2] | 14.8 nM | 1.03 nM | – | – | IC50 [3]: > 10000 nM |
| CCC1C(=O)Nc2cc(CN3CCN(c4ccc(C(=O)NC)nc4F)CC3)cc3cnn1c23 (stereo not shown) [Compound 5] | 15.4 nM | 0.78 nM | – | – | – |
| CNC(=O)c1ccc(N2CCN(Cc3cc4c5c(cnn5[C@H](C)C(=O)N4)c3)CC2)c(Cl)n1 [Compound 6-2] | – | – | – | – | IC50 [3]: 239 nM |
| CNC(=O)c1ccc(N2CCN(Cc3cc4c5c(cnn5C(C)C(=O)N4)c3)CC2)c(Cl)n1 (stereo not shown) [Compound 6] | – | – | – | – | AUC(0-t) ([4]; iv, i.v.(1mg/kg)): 5030 ng·h/mL; clearance ([4]; iv, i.v.(1mg/kg)): 3.3 mL/min/kg; half-life ([4]; iv, i.v.(1mg/kg)): 1.3 h; bioavailability [4]: 117%; AUC(0-t) ([4]; po, p.o.(5mg/kg)): 28700 ng·h/mL; half-life ([4]; po, p.o.(5mg/kg)): 2.7 h |
| CNC(=O)c1ccc(N2CCN(Cc3cc4c5c(cnn5C(C)C(=O)N4)c3)CC2)c(C)n1 (stereo not shown) [Compound 7] | – | – | – | – | Kp at 4 h [5]: 0.138 |
| CCC1C(=O)Nc2cc(CN3CCN(c4ccc(C(=O)NC)nc4Cl)CC3)cc3cnn1c23 (stereo not shown) [Compound 8] | 12.7 nM | – | – | – | – |
| CNC(=O)c1ccc(N2CCN(Cc3cc4c5c(cnn5c3)N(C)C(=O)N4)CC2)c(C)n1 [Compound 19] | < 1.52 nM | 1.42 nM | 732 nM | 516 | IC50 [3]: 433 nM |
| CNC(=O)c1ccc(N2CCN(Cc3cc4c5c(cnn5CC(=O)N4)c3)CC2)c(Cl)n1 [Compound 26] | – | 0.28 nM | 1440 nM | 5150 | – |
| CCN1C(=O)Nc2cc(CN3CCN(c4ccc(C(=O)NC)nc4C)CC3)cn3ncc1c23 [Compound 30] | 2.7 nM | 1.24 nM | 211 nM | 170.8 | – |
| CCN1C(=O)Nc2cc(CN3CCN(c4ccc(C(=O)NC)nc4F)CC3)cn3ncc1c23 [Compound 33] | < 1.52 nM | – | – | – | – |
| CCN1C(=O)Nc2cc(CN3CCN(c4ccc(C(=O)NC)nc4Cl)CC3)cn3ncc1c23 [Compound 34] | 2.3 nM | – | – | – | – |
| CC1C(=O)Nc2cc(CN3CCN(c4ccc(C#N)cn4)CC3)cc3cnn1c23 (stereo not shown) [Compound 35] | 213 nM | – | – | – | – |
| CNC(=O)c1ccc(N2CCN(Cc3cc4c5c(cnn5C5(CC5)C(=O)N4)c3)CC2)c(F)n1 [Compound 37] | < 1.52 nM | 0.24 nM | 8.7 nM | 36.3 | – |
| CNC(=O)c1ccc(N2CCN(Cc3cc4c5c(cnn5C5(CC5)C(=O)N4)c3)CC2)c(Cl)n1 [Compound 38] | < 1.52 nM | – | – | – | – |
| CNC(=O)c1ccc(N2CCN(Cc3cc4c5c(cnn5C5(CC5)C(=O)N4)c3)CC2)c(C)n1 [Compound 39] | < 1.52 nM | – | – | – | – |
| CNC(=O)c1ccc(N2CCN(Cc3cc4c5c(cnn5C5(CC5)C(=O)N4)c3)C[C@H]2C)c(C)n1 [Compound 40] | 17.9 nM | 0.23 nM | 81 nM | 353.6 | AUC(0-t) ([4]; iv, i.v.(1mg/kg)): 4410 ng·h/mL; clearance ([4]; iv, i.v.(1mg/kg)): 3.8 mL/min/kg; half-life ([4]; iv, i.v.(1mg/kg)): 3.6 h; bioavailability [4]: 124%; AUC(0-t) ([4]; po, p.o.(5mg/kg)): 31100 ng·h/mL; half-life ([4]; po, p.o.(5mg/kg)): 3.1 h; IC50 [3]: 635 nM |
| CNC(=O)c1ccc(N2CCN(Cc3cc4cnn5c4c(c3F)NC(=O)C53CC3)CC2)c(Cl)n1 [Compound 41] | 4.4 nM | 0.1 nM | 71.9 nM | 719 | – |
| CNC(=O)c1ccc(N2CCN(Cc3cc4c5c(cnn5[C@@H](C5CC5)C(=O)N4)c3)CC2)c(Cl)n1 [Compound 43-1] | 8.7 nM | 1.67 nM | 575 nM | 344.5 | – |
| CNC(=O)c1ccc(N2CCN(Cc3cc4c5c(cnn5[C@H](C5CC5)C(=O)N4)c3)CC2)c(Cl)n1 [Compound 43-2] | 1.7 nM | 1.04 nM | 139 nM | 133.3 | – |
| CNC(=O)c1ccc(N2CCN(Cc3cc4c5c(c3)ncn5[C@@H](C3CC3)C(=O)N4)CC2)c(Cl)n1 [Compound 47-1] | 20.2 nM | 0.68 nM | 901 nM | 1326 | IC50 [3]: > 10000 nM |
| CNC(=O)c1ccc(N2CCN(Cc3cc4c5c(c3)ncn5[C@H](C3CC3)C(=O)N4)CC2)c(Cl)n1 [Compound 47-2] | 16.7 nM | 1.21 nM | 281 nM | 232.5 | IC50 [3]: > 10000 nM |

| SMILES | IC50 [1] | IC50 [2, 7] | IC50 [6, 8] | PARP1/2 Fold selectivity [2] | other results |
| --- | --- | --- | --- | --- | --- |
| CNC(=O)c1ccc(N2CCN(Cc3cc4c5c(c3)ncn5[C@@H](C3CC3)C(=O)N4)CC2)c(C)n1 [Compound 49-1] | 20.4 nM | 0.71 nM | 1310 nM | 1852 | – |
| CNC(=O)c1ccc(N2CCN(Cc3cc4c5c(c3)ncn5[C@H](C3CC3)C(=O)N4)CC2)c(C)n1 [Compound 49-2] | 18 nM | 1.53 nM | 431 nM | 281.5 | IC50 [3]: > 10000 nM |
| CNC(=O)c1ccc(N2CCN(Cc3cc4c5c(cnn5c3)N(C3CC3)C(=O)N4)CC2)c(F)n1 [Compound 53] | 2.2 nM | 2.16 nM | 45.5 nM | 21.1 | – |
| CNC(=O)c1ccc(N2CCN(Cc3cc4c5c(cnn5c3)N(C3CC3)C(=O)N4)CC2)c(C)n1 [Compound 54] | < 1.52 nM | 0.4 nM | 45.2 nM | 21.1 | IC50 [3]: 428 nM |
| CNC(=O)c1ccc(N2CCN(Cc3cc4c5c(cnn5c3)N(C(C)C)C(=O)N4)CC2)c(F)n1 [Compound 55] | – | 2.64 nM | 1010 nM | 382 | – |
| CNC(=O)c1ccc(N2CCN(Cc3cc4c5c(cnn5c3)N(C(C)C)C(=O)N4)CC2)c(C)n1 [Compound 56] | 15 nM | 3.34 nM | 1220 nM | 364.5 | IC50 [3]: 878 nM |
| CNC(=O)c1ccc(N2CCN(Cc3cc4c5c(c(C)nn5c3)N(C)C(=O)N4)CC2)c(C)n1 [Compound 57] | 1.3 nM | – | – | – | – |
| CNC(=O)c1ccc(N2CCN(Cc3cc4c5c(c(C(F)(F)F)nn5c3)N(C)C(=O)N4)CC2)c(C)n1 [Compound 58] | 1.2 nM | 0.99 nM | 204 nM | 206 | – |
| CNC(=O)c1ccc(N2CCN(Cc3cc4c5c(cnn5c3)N(C3CCC3)C(=O)N4)CC2)c(C)n1 [Compound 59] | 6.5 nM | – | – | – | IC50 [3]: > 10000 nM |
| CNC(=O)c1ccc(N2CCN(Cc3cc4c5c(cnn5c3)N(CC(F)(F)F)C(=O)N4)CC2)c(C)n1 [Compound 61] | 16.2 nM | – | – | – | IC50 [3]: 1440 nM |
| CCCN1C(=O)Nc2cc(CN3CCN(c4ccc(C(=O)NC)nc4C)CC3)cn3ncc1c23 [Compound 62] | 20.9 nM | 3.3 nM | 1400 nM | 422.3 | – |
| CNC(=O)c1ccc(N2CCN(Cc3cc4c5c(cnn5c3)N(CCO)C(=O)N4)CC2)c(C)n1 [Compound 63] | 16.8 nM | 2.1 nM | 1830 nM | 827.4 | – |
| CNC(=O)c1ccc(N2CCN(Cc3cc4c5c(cnn5c3)NC(=O)N4)CC2)c(C)n1 [Compound 64] | 17.5 nM | – | – | – | – |
| CNC(=O)c1ccc(N2CCN(Cc3cn4ncc5c4c(c3C)NC(=O)N5C3CC3)CC2)c(C)n1 [Compound 66] | 48.1 nM | 3.3 nM | 1380 nM | 417.5 | – |
| CNC(=O)c1ccc(N2CCN(Cc3cc4c5c(cnn5c3)N(CC(C)O)C(=O)N4)CC2)c(C)n1 (stereo not shown) [Compound 67] | 392 nM | – | – | – | – |
| CNC(=O)c1ccc(N2CCN(Cc3cc4c5c(cnn5c3)N(CC3CCC3)C(=O)N4)CC2)c(C)n1 [Compound 69] | 720 nM | – | – | – | – |
| CNC(=O)c1ccc(N2CCN(Cc3cc4c5c(cnn5c3)N(C3CCC3)C(=O)N4)C[C@H]2C)c(C)n1 [Compound 72] | – | 4.9 nM | 474 nM | 97.6 | – |
| CNC(=O)c1ccc(N2CCN(Cc3cc4c5c(cnn5c3)N(C3CCC3)C(=O)N4)CC2)c(Cl)n1 [Compound 73] | 3.2 nM | – | – | – | – |
| CNC(=O)c1ccc(N2CCN(Cc3cc4c5c(cnn5c3)N(C3CCC3)C(=O)N4)[C@H](C)C2)c(C)n1 [Compound 79] | 21.8 nM | – | – | – | – |
| CNC(=O)c1ccc(N2CCN(Cc3cc4c5c(cnn5c3)N(C3CCC3)C(=O)N4)[C@H](C)C2)c(Cl)n1 [Compound 80] | 18.7 nM | – | – | – | – |
| CNC(=O)c1ccc(N2CCN(Cc3cc4c5c(c3)ncn5C(C3CCC3)C(=O)N4)CC2)c(Cl)n1 (stereo not shown) [Compound 81] | 4.6 nM | 4.2 nM | 2410 nM | 574.1 | – |
| CCN1C(=O)Nc2cc(CN3CCN(c4ccc(C(=O)NC)nc4F)CC3)cc3c2c1nn3C [Compound B1, 5-(4-((3-ethyl-1-methyl-4-oxo-1,3,4,5-tetrahydropyrazolo[3,4,5-d]quinazolin-7-yl)methyl)piperazine-1-yl)-6-fluoro-N-methylpicolinamide, reference compound] | – | – | – | 2.64 | IC50 [6]: 3.7 nM; IC50 [2]: 1.4 nM |
